From patent US4376773A, “10-Substituted 5-cyanomethylene-10,11-dihydro-dibenzo-[a,d]-cycloheptenes, their preparation, and therapeutic agents containing these compounds” (BASF Aktiengesellschaft, priority 1980, dated 1983)
Where two headings read alike, the source gives them in different places.

Tests used:
[1] = test system: methamphetamine-antagonism (sniffing movements); experiment: Antimethamphetamine action: methamphetamine-induced sniffing movements; format: in vivo, rat; conditions: for ED50: ip, 0.5 h, rat, intraperitoneal, 30 min before methamphetamine 2.5 mg/kg i.v., read-out: Antimethamphetamine action ED 50%; for Antimethamphetamine action R.A. (relative activity): clozapine = 1.00
Experimental: Methamphetamine (2.5 mg/kg administered intravenously) regularly causes the following symptoms in rats: motor restlessness, searching and sniffing movements, bristling fur and tremor (Janssen et al., Arzneim.-Forsch./DrugRes. 13 (1963), 205; Randrug et al., Psychopharmacologia 11 (1967), 300). The test substances are administered intraperitoneally, 30 minutes before the methamphetamine. The criterion of whether a compound has an effect is whether the sniffing movements remain absent over 5 minutes' observation after the injection of methamphetamine. That dose is determined as the mean inhibitory dose (ED 50%) by means of Probit analysis which prevents the symptom in half the number of animals. Number of animals examined per dose: 10.

death from physostigmine = experiment: Anticholinergic action: protection against physostigmine lethality; format: in vivo, mouse (female NMRI); conditions: mice, oral, 30 min before physostigmine 0.825 mg/kg s.c.; dose protecting 50% against death
Experimental: Groups of 10 female NMRI mice are given physostigmine subcutaneously, at a lethal dose (0.825 mg/kg). The test substances are administered orally 30 minutes before the administration of physostigmine.
The ED 50% is determined as the dose of compound which protects 50% of the animals against death from physostigmine.

[2] = test system: orientation hypermotility; experiment: Sedative action: orientation hypermotility in mice; format: in vivo, mouse (female NMRI); conditions: for ED50: Mus musculus, 0.5 h, mice, oral, 30 min after administration, 50% decrease in orientation hypermotility vs placebo, read-out: Sedation ED 50%; for Sedation R.A. (relative activity): clozapine = 1.0
Experimental: 4-8 groups of 3 female NMRI mice are given the compound orally. The orientation hypermotility induced by a new environment is determined photoelectrically, 30 minutes after administration of the compound, for a period of 30 minutes. The ED50 is the dose which produces a decrease in orientation hypermotility by 50%, compared to control animals treated with placebo.

[3] = test system: tonic extensor reflex on the rabbit gastrocnemius; experiment: Muscle-relaxing action: tonic extensor reflex; format: in vivo; conditions: for ED50: Oryctolagus cuniculus, rabbit, intravenous, dose reducing muscle activity to half, read-out: Muscle relaxation ED 50%; for Muscle relaxation R.A. (relative activity): clozapine = 1.0
From the text: The measurement is based on quantifying the tonic extensor reflex on the rabbit gastrocnemius (Teschendorf et al., Arch. Pharmacol. exp. Path. 266 (1970), 462). The rabbit is fixed in a special apparatus which permits bending the paw at the talocalcanean joint in a defined and reproducible manner. As a result of this bending, a tonic extensor reflex is triggered in the […]. The electrical activity of the muscle during contraction is registered and the individual pulses are counted. The extension (duration 5 s) is repeated at intervals of one minute. After a constant number of pulses has been reached (constituting the control value), the test compound is administered intravenously. The number of pulses after administration is related to the previous value. For each dose investigated, 4-6 animals are used. The ED 50% is the dose which reduces the muscle activity to half, based on the initial value.

Acute toxicity = conditions: mouse, in vivo, ip; mice, intraperitoneal; read-out: Toxicity LD 50
Experimental: Groups of 5-10 female NMRI mice are given the compounds intraperitoneally. The LD 50 is determined as the dose after which 50% of the treated animals die.

[4] = test system: apomorphine-antagonism (mandibular movements); experiment: Antiapomorphine action: apomorphine-triggered mandibular movements; format: in vivo, rat (female Sprague-Dawley); conditions: for ED50: 1.5 h, read-out: Antiapomorphine action ED 50%; for Antiapomorphine action R.A. (relative activity): clozapine = 1.00
Experimental: The test substances are administered orally 90 minutes before the apomorphine.

[5] = rat, oral, 90 min before apomorphine 1.5 mg/kg s.c.

CN1CCN(C2Cc3ccccc3C(=CC#N)c3ccccc32)CC1 (mixture of isomers) [Example 1, cis,trans-5-Cyanomethylene-10-(4-methyl-piperazin-1-yl)-10,11-dihydro-dibenzo[a,d]-cycloheptene. 1/2 H2 O]
ED50 [1]: 5.4 mg/kg | Antimethamphetamine action R.A. (relative activity) [1]: 6.85 | ED50 protecting against physostigmine lethality (death from physostigmine): > 46.4 | ED50 [2]: 5.6 mg/kg | Sedation R.A. (relative activity) [2]: 0.85 | ED50 [3]: 0.1 mg/kg | Muscle relaxation R.A. (relative activity) [3]: 0.46 | LD50 (Acute toxicity): > 100 mg/kg

CN1CCN(C2Cc3cc(Cl)ccc3C(=CC#N)c3ccccc32)CC1 (mixture of isomers) [Example 4, cis,trans-2-Chloro-5-cyanomethylene-10-(4-methylpiperazin-1-yl)-10,11-dihydro-dibenzo[a,d]-cycloheptene]
ED50 [1]: 4.6 mg/kg | Antimethamphetamine action R.A. (relative activity) [1]: 8.04 | ED50 [2]: 5.5 mg/kg | Sedation R.A. (relative activity) [2]: 0.86 | ED50 [3]: 0.02 mg/kg | muscle-relaxing action compared with comparative substances ([3]; in words, vs clozapine and perlapine): markedly surpasses those of the comparative substances | Muscle relaxation R.A. (relative activity) [3]: 2.30

CCN1CCN(C2Cc3ccccc3C(=CC#N)c3ccccc32)CC1 (mixture of isomers) [Example 5, cis,trans-5-Cyanomethylene-10-(4-ethyl-piperazin-1-yl)-10,11-dihydro-dibenzo[a,d]-cycloheptene. 1/2 H2 O]
ED50 [1]: 13 mg/kg | Antimethamphetamine action R.A. (relative activity) [1]: 2.85 | ED50 protecting against physostigmine lethality (death from physostigmine): > 46.4 | ED50 [2]: 6.7 mg/kg | Sedation R.A. (relative activity) [2]: 0.71 | ED50 [3]: 0.1 mg/kg | Muscle relaxation R.A. (relative activity) [3]: 0.46 | LD50 (Acute toxicity): > 100 mg/kg

N#CC=C1c2ccccc2CC(N2CCN(CCO)CC2)c2ccccc21 (mixture of isomers) [Example 7, cis,trans-5-Cyanomethylene-10-(N-β-hydroxyethyl-piperazin-1-yl)-10,11-dihydro-dibenzo[a,d]-cycloheptene. 1/2 H2 O]
ED50 [1]: 30 mg/kg | Antimethamphetamine action R.A. (relative activity) [1]: 1.23 | ED50 protecting against physostigmine lethality (death from physostigmine): > 100 | ED50 [2]: 10 mg/kg | Sedation R.A. (relative activity) [2]: 0.47 | LD50 (Acute toxicity): > 100 mg/kg

C[N+]1([O-])CCN(C2Cc3ccccc3C(=CC#N)c3ccccc32)CC1 (mixture of isomers) [Example 8, cis, trans-5-Cyanomethylene-10-(4-methyl-4-oxy-piperazin-1-yl)-10,11-dihydro-dibenzo[a,d]-cycloheptene. 1/2 H2 O]
ED50 [1]: 39 mg/kg | Antimethamphetamine action R.A. (relative activity) [1]: 0.95 | ED50 protecting against physostigmine lethality (death from physostigmine): > 100 | ED50 [2]: 15.2 mg/kg | Sedation R.A. (relative activity) [2]: 0.31 | ED50 [4, 5]: 7 mg/kg | Antiapomorphine action R.A. (relative activity) [4]: 1.14 | LD50 (Acute toxicity): > 100 mg/kg

CN1CCN(C2=Nc3cc(Cl)ccc3Nc3ccccc32)CC1 [Clozapine, clozapine, reference compound]
ED50 [1]: 37 mg/kg | Antimethamphetamine action R.A. (relative activity) [1]: 1.00 | Sedation R.A. (relative activity) [2]: 1.0 | ED50 [4, 5]: 8 mg/kg | Antiapomorphine action R.A. (relative activity) [4]: 1.00 | ED50 [3]: 0.046 mg/kg | Muscle relaxation R.A. (relative activity) [3]: 1.0

CN1CCN(C2=Nc3ccccc3Cc3ccccc32)CC1 [Perlapine, perlapine, reference compound]
ED50 [1]: 31 mg/kg | Antimethamphetamine action R.A. (relative activity) [1]: 1.19 | ED50 [2]: 2.01 mg/kg | Sedation R.A. (relative activity) [2]: 2.36 | ED50 ([4]; Rattus norvegicus, po): 21.5 mg/kg | Antiapomorphine action R.A. (relative activity) [4]: 0.37 | ED50 [3]: 0.1 mg/kg | Muscle relaxation R.A. (relative activity) [3]: 0.46
